Experimental data: patent publication US11168087B2, “Substituted imidazo[1,2-b]pyridazines, substituted imidazo[1,5-b]pyridazines, related compounds, and their use in the treatment of medical disorders” (BIAL—R&D Investments, S.A., priority 2016, dated 2021)

Biological target: T1, glucocerebrosidase (Gcase) (Homo sapiens, UniProt P04062)
T1 construct: micellar solution containing 10 nM GCase and 100 nM saposin C
T1 sequence (P04062 40-536): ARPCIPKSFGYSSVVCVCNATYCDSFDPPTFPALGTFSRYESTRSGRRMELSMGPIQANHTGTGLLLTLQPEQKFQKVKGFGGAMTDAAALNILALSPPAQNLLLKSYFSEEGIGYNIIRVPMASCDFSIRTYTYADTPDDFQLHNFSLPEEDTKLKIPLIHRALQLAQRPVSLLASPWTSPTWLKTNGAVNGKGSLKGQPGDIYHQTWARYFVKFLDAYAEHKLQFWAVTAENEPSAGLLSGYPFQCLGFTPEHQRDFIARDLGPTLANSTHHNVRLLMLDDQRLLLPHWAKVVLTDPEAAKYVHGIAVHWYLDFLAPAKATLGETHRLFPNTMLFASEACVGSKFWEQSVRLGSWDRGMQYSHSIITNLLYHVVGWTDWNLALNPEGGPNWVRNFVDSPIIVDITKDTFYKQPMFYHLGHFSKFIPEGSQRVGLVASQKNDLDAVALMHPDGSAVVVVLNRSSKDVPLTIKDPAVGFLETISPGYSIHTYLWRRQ
Experiment: Glucocerebrosidase (Gcase) activation assay, 4-methylumbelliferyl-beta-D-glucopyranoside substrate, with saposin C
Assay type: biochemical
Conditions: 0.25 h; for activation at 0.1 µM: read-out: Percent Gcase Activation 0.1 μM Test Compound; for activation at 1 µM: read-out: Percent Gcase Activation 1 μM Test Compound
Method: The ability of exemplary compounds to activate glucocerebrosidase (Gcase) was measured.
A 484 μL aliquot of a 1.0 mg/mL solution of phosphatidylserine (PS) (Sigma P7769) in chloroform was evaporated under a stream of nitrogen for 1 hour. The lipid film was dissolved over 4 minutes of vigorous vortexing in 40 mL of 176 mM K2HPO4/50 mM citric acid (pH 4.7) containing 7.5 μL of triton X-100, resulting in a mixed micellar preparation with a composition of 0.32 mM triton and 0.37 mol % PS. 4-Methylumbelliferyl-beta-D-glucopyranoside (ACROS-337025000) was dissolved in the micellar solution to a final concentration of 2 mM for use as the reaction substrate.
Test compounds were diluted to the desired concentrations with dimethylsulfoxide (DMSO) from 10 mM stocks, and 0.41 μL of the DMSO compound mixture was added to 100 μL of micellar solution containing 10 nM GCase and 100 nM saposin C (Enzo ALX-201-262-C050). Pre-incubation was allowed to occur for 30 minutes at room temperature, after which the reaction was initiated by combining 25 μL of substrate solution with 25 μL of compound/GCase/saposin mixture. The reaction proceeded for 15 minutes at room temperature and was stopped by adding 150 μL of 1M glycine, pH 12.5. The endpoint of the reaction was monitored by measuring fluorescence intensity (excitation: 365 nm; emission: 440 nm) on a SpectraMax i3 instrument (Molecular Devices). Test compounds were screened at 1.0 and 0.1 μM final concentration, and subsequent 8-point dose response curves were obtained using 3-fold dilutions from a maximum final concentration of 5 μM.
The symbol “+” indicates less than 5% Gcase activation; the symbol “++” indicates Gcase activation in the range of 5% up to 20%; and the symbol “+++” indicates Gcase activation greater than 20%.

Row | Structure (SMILES) | activation at 0.1 µM [%] | activation at 1 µM [%]
1 | Cc1ccc(-c2cc(C)c3ncc(C(=O)N[C@H](C4CC4)C(F)(F)F)n3n2)cn1 [(R)-6-(6-Methylpyridin-3-yl)-N-(1-cyclopropyl-2,2,2-trifluoroethyl)-8-methylimidazo[1,2-b]pyridazine-3-carboxamide] | 5 to 20 | > 20
2 | Cc1cc(-c2cccc(F)c2)nn2c(C(=O)N[C@H](C3CC3)C(F)(F)F)ncc12 [(R)—N-(1-Cyclopropyl-2,2,2-trifluoroethyl)-2-(3-fluorophenyl)-4-methylimidazo[1,5-b]pyridazine-7-carboxamide] | > 20 | > 20
3 | Cc1cc(-c2ccc3ncn(C)c3c2)nn2c(C(=O)N[C@H](C3CC3)C(F)(F)F)cnc12 [(R)—N-(1-Cyclopropyl-2,2,2-trifluoroethyl)-8-methyl-6-(1-methyl-1H-benzo[d]imidazol-6-yl)imidazo[1,2-b]pyridazine-3-carboxamide] | 5 to 20 | > 20
4 | Cc1cc(-c2ccc(F)cc2C#N)nn2c(C(=O)N[C@@H](C3CC3)C(F)(F)F)ncc12 [(S)-2-(2-Cyano-4-fluorophenyl)-N-(1-cyclopropyl-2,2,2-trifluoroethyl)-4-methylimidazo[1,5-b]pyridazine-7-carboxamide] | 5 to 20 | > 20
5 | Cc1cc(-c2ccc(F)cc2C#N)nn2c(C(=O)N[C@@H](C)C3CC3)ncc12 [(S)-2-(2-Cyano-4-fluorophenyl)-N-(1-cyclopropylethyl)-4-methylimidazo[1,5-b]pyridazine-7-carboxamide] | 5 to 20 | > 20
6 | Cc1cc(-c2cncc(Cl)c2)nn2c(C(=O)N[C@@H](C3CC3)C(F)(F)F)ncc12 [(S)-2-(5-Chloropyridin-3-yl)-N-(1-cyclopropyl-2,2,2-trifluoroethyl)-4-methylimidazo[1,5-b]pyridazine-7-carboxamide] | 5 to 20 | > 20
7 | Cc1cc(-c2cccc(F)c2C#N)nn2c(C(=O)N[C@@H](C)C(F)(F)F)cnc12 [(S)-6-(2-Cyano-3-fluorophenyl)-8-methyl-N-(1,1,1-trifluoropropan-2-yl)imidazo[1,2-b]pyridazine-3-carboxamide] | 5 to 20 | > 20
8 | Cc1cc(-c2cccc(F)c2C#N)nn2c(C(=O)N[C@@H](C)C3CC3)cnc12 [(S)-6-(2-Cyano-3-fluorophenyl)-N-(1-cyclopropylethyl)-8-methylimidazo[1,2-b]pyridazine-3-carboxamide] | > 20 | > 20
9 | Cc1cc(-c2cc(F)ccc2C#N)nn2c(C(=O)N[C@@H](C)C(F)(F)F)cnc12 [(S)-6-(2-Cyano-5-fluorophenyl)-8-methyl-N-(1,1,1-trifluoropropan-2-yl)imidazo[1,2-b]pyridazine-3-carboxamide] | 5 to 20 | > 20
10 | Cc1cc(-c2cc(F)ccc2C#N)nn2c(C(=O)N[C@@H](C)C3CC3)cnc12 [(S)-6-(2-Cyano-5-fluorophenyl)-N-(1-cyclopropylethyl)-8-methylimidazo[1,2-b]pyridazine-3-carboxamide] | 5 to 20 | > 20
11 | Cc1cc(-c2c(F)cccc2C#N)nn2c(C(=O)N[C@@H](C)C(F)(F)F)cnc12 [(S)-6-(2-Cyano-6-fluorophenyl)-8-methyl-N-(1,1,1-trifluoropropan-2-yl)imidazo[1,2-b]pyridazine-3-carboxamide] | 5 to 20 | > 20
12 | Cc1cc(-c2cccc(F)c2)nn2c(C(=O)N[C@@H](C3CC3)C(F)(F)F)ncc12 [(S)—N-(1-Cyclopropyl-2,2,2-trifluoroethyl)-2-(3-fluorophenyl)-4-methylimidazo[1,5-b]pyridazine-7-carboxamide] | > 20 | > 20
13 | Cc1cc(-c2ccc3ncn(C)c3c2)nn2c(C(=O)N[C@@H](C3CC3)C(F)(F)F)cnc12 [(S)—N-(1-Cyclopropyl-2,2,2-trifluoroethyl)-8-methyl-6-(1-methyl-1H-benzo[d]imidazol-6-yl)imidazo[1,2-b]pyridazine-3-carboxamide] | 5 to 20 | > 20

Other lines, results leading:

Row | activation at 0.1 µM [%] | activation at 1 µM [%] | Structure (SMILES)
14 | 5 to 20 | > 20 | CCCCCO[C@H]1CC[C@H](NC(=O)c2coc3c(C)cc(C)nc23)CC1 [5,7-Dimethyl-N-((1R,4R)-4-(pentyloxy)cyclohexyl)furo[3,2-b]pyridine-3-carboxamide]
15 | > 20 | > 20 | CCCCCO[C@H]1CC[C@H](NC(=O)c2nsc3c(C)cc(C)nc23)CC1 [5,7-Dimethyl-N-((1R,4R)-4-(pentyloxy)cyclohexyl)isothiazolo[4,5-b]pyridine-3-carboxamide]
16 | 5 to 20 | > 20 | CCCCCO[C@H]1CC[C@H](NC(=O)c2noc3c(C)cc(C)nc23)CC1 [5,7-Dimethyl-N-((1R,4R)-4-(pentyloxy)cyclohexyl)isoxazolo[4,5-b]pyridine-3-carboxamide]
17 | > 20 | > 20 | Cc1cc(C#N)c(-c2cc(C)c3ncc(C(=O)N[C@@H](C)C4CC4)n3n2)o1 [(S)-6-(3-Cyano-5-methylfuran-2-yl)-N-(1-cyclopropylethyl)-8-methylimidazo[1,2-b]pyridazine-3-carboxamide]
18 | < 5 | > 20 | Cc1ccc(-c2cc(C)c3ncc(C(=O)N[C@@H](C4CC4)C(F)(F)F)n3n2)cn1 [(S)-6-(6-Methylpyridin-3-yl)-N-(1-cyclopropyl-2,2,2-trifluoroethyl)-8-methylimidazo[1,2-b]pyridazine-3-carboxamide]
19 | 5 to 20 | > 20 | Cc1cc(N2CCN(C(C)C)C2=O)nn2c(C(=O)N[C@@H](C3CC3)C(F)(F)F)ncc12 [(S)—N-(1-Cyclopropyl-2,2,2-trifluoroethyl)-2-(3-isopropyl-2-oxoimidazolidin-1-yl)-4-methylimidazo[1,5-b]pyridazine-7-carboxamide]
20 | 5 to 20 | > 20 | Cc1cc(-c2cc(C)c3cnc(C(=O)N[C@@H](C4CC4)C(F)(F)F)n3n2)sn1 [(S)—N-(1-Cyclopropyl-2,2,2-trifluoroethyl)-4-methyl-2-(3-methylisothiazol-5-yl)imidazo[1,5-b]pyridazine-7-carboxamide]
21 | < 5 | > 20 | Cc1cc(C)c2onc(C(=O)NC(C3CC3)C(F)(F)F)c2n1 (stereo not drawn) [N-(1-Cyclopropyl-2,2,2-trifluoroethyl)-5,7-dimethylisoxazolo[4,5-b]pyridine-3-carboxamide]
22 | 5 to 20 | > 20 | Cc1cc(C)c2occ(C(=O)Nc3ccc4c(c3)CCC4)c2n1 [N-(2,3-Dihydro-1H-inden-5-yl)-5,7-dimethylfuro[3,2-b]pyridine-3-carboxamide]
23 | > 20 | > 20 | Cc1cc(C)c2snc(C(=O)Nc3ccc4c(c3)CCC4)c2n1 [N-(2,3-Dihydro-1H-inden-5-yl)-5,7-dimethylisothiazolo[4,5-b]pyridine-3-carboxamide]
24 | 5 to 20 | > 20 | Cc1cc(C)c2onc(C(=O)Nc3ccc4c(c3)CCC4)c2n1 [N-(2,3-Dihydro-1H-inden-5-yl)-5,7-dimethylisoxazolo[4,5-b]pyridine-3-carboxamide]
25 | 5 to 20 | > 20 | Cc1cc(C)c2onc(C(=O)NC(C)(C)C3CC3)c2n1 [N-(2-Cyclopropylpropan-2-yl)-5,7-dimethylisoxazolo[4,5-b]pyridine-3-carboxamide]
26 | 5 to 20 | > 20 | Cc1cc(N2CC(C(C)C)OC2=O)nn2c(C(=O)N[C@H](C3CC3)C(F)(F)F)cnc12 (stereo partly drawn) [N—((R)-1-Cyclopropyl-2,2,2-trifluoroethyl)-6-(5-isopropyl-2-oxooxazolidin-3-yl)-8-methylimidazo[1,2-b]pyridazine-3-carboxamide]
27 | < 5 | > 20 | Cc1cc(N2CC(C(C)C)OC2=O)nn2c(C(=O)N[C@@H](C3CC3)C(F)(F)F)cnc12 (stereo partly drawn) [N—((S)-1-Cyclopropyl-2,2,2-trifluoroethyl)-6-(5-isopropyl-2-oxooxazolidin-3-yl)-8-methylimidazo[1,2-b]pyridazine-3-carboxamide]
